Measured values: ChEMBL document CHEMBL6182947, “Discovery of Phloroglucinol Derivatives as a New Type of Nonnucleoside Inhibitors with Anti-herpes Simplex Virus Type 1 Activity” (J Med Chem, 2025)
Active and inactive are the calls of the source. The rule behind the calls is not given here.

What was measured:
[1] = Selectivity index, ratio of CC50 for Cytotoxicity against african green monkey Vero cells to IC50 for Antiviral activity against HSV1 infected in African green monkey Vero cells; assay type: toxicity, cell-based; details: read-out: Selectivity Index
[2] = system: Human alphaherpesvirus 1; test: Antiviral activity against HSV1 infected in African green monkey Vero cells assessed as reduction of virus-induced cytopathic effect measured after 48 hrs of incubation; assay type: functional, organism-based; details: Human alphaherpesvirus 1, Vero
[3] = system: Human alphaherpesvirus 1; test: Antiviral activity against ACV-resistant HSV1 153 infected in African green monkey Vero cells assessed as reduction of virus-induced cytopathic effect measured after 48 hrs of incubation; assay type: functional, organism-based; details: Human alphaherpesvirus 1, 153, Vero
[4] = system: Human alphaherpesvirus 1; test: Antiviral activity against ACV-resistant HSV1 Blue infected in African green monkey Vero cells assessed as reduction of virus-induced cytopathic effect measured after 48 hrs of incubation; assay type: functional, organism-based; details: Human alphaherpesvirus 1, Blue
[5] = Cytotoxicity against African green monkey Vero cells assessed as cell viability measured after 24 hrs incubation by MTT assay; assay type: toxicity, cell-based; details: chlorocebus sabaeus
[6] = system: Human alphaherpesvirus 1; test: Antiviral activity against HSV1 expressing GFP infected in African green monkey Vero cells assessed as fold reduction in viral titer green fluorescence protein expression at 2 uM measured after 48 hrs post-infection by immunofluorescence based fluorescence microscopy; assay type: functional
[7] = system: Human alphaherpesvirus 1; test: Antiviral activity against HSV1 expressing GFP infected in African green monkey Vero cells assessed as fold reduction in viral titer green fluorescence protein expression measured after 48 hrs post-infection by immunofluorescence based fluorescence microscopy; assay type: functional
[8] = system: Vero; test: Inhibition of CDK9/Cyclin T1 in African green monkey Vero cells infected with HSV1 assessed as catalytic hydrolysis of ATP measured after 12 hrs by Western blot analysis; assay type: cell-based; details: Chlorocebus aethiops
[9] = system: Vero; test: Suppression of phosphorylation of RNA polymerase at serine 2 C-terminal domain in HSV1 infected African green monkey Vero cells at 0.25 to 2 uM measured after 12 hrs incubation by Western blot analysis; assay type: cell-based; details: Human alphaherpesvirus 1, dose 0.25-2 µM
[10] = system: Vero; test: Inhibition of CDK7/Cyclin T1 in African green monkey Vero cells infected with HSV1 assessed as catalytic hydrolysis of ATP measured after 12 hrs by Western blot analysis; assay type: cell-based; details: Chlorocebus aethiops
[11] = system: Human alphaherpesvirus 1; test: Antiviral activity against HSV1 infected in African green monkey Vero cells assessed as reduction of virus yield at 2 uM treated for 0 to 14 hrs of post-infection; assay type: functional, organism-based; details: time 0-14 hrs
[12] = system: Human alphaherpesvirus 1; test: Antiviral activity against HSV1 expressing GFP infected in African green monkey Vero cells assessed as suppression of infection at 50 times of IC50 concentration measured after 48 hrs post-infection; assay type: functional, organism-based
[13] = system: Human alphaherpesvirus 1; test: Antiviral activity against HSV1 infected in African green monkey Vero cells assessed as inhibition of virus replication at 2 uM treated 8 hrs of post-infection; assay type: functional, organism-based

Structure (SMILES)	selectivity ratio [1]	IC50 [2]	IC50 [3]	IC50 [4]	CC50 at 24 h [5]	fold change (FC) [6]	Activity [7]	Activity [8]	Activity [9]	Activity [10]	Activity [11]	Activity [12]	Activity [13]
CCCCC(=O)c1c(O)cc2c(c1O)C(CC(C)C)C1=C(O2)C(C)(C)C(=O)C(C)(C)C1=O (stereo not drawn)	20	500 nM	1200 nM	1200 nM	8 µM								
CC(C)CC1C2=C(Oc3cc(O)c(C(=O)C(C)C)c(O)c31)C(C)(C)C(=O)C(C)(C)C2=O (stereo not drawn)	17.8	630 nM	400 nM	300 nM	7 µM								
CC(C)CC(=O)c1c(O)cc2c(c1O)C(C1CCCC1)C1=C(O2)C(C)(C)C(=O)C(C)(C)C1=O (stereo not drawn)	11.4	700 nM	500 nM	500 nM	8 µM								
CC(C)CC(=O)c1c(O)cc2c(c1O)C(Cc1ccccc1)C1=C(O2)C(C)(C)C(=O)C(C)(C)C1=O (stereo not drawn)	21.7	600 nM	600 nM	600 nM	13 µM								
CC(C)CC1C2=C(Oc3cc(O)c(C(=O)C4CCCCC4)c(O)c31)C(C)(C)C(=O)C(C)(C)C2=O (stereo not drawn)	35	200 nM	300 nM	250 nM	7 µM								
CC(C)CC(=O)c1c(O)c(Cl)c2c(c1O)C(CC(C)C)C1=C(O2)C(C)(C)C(=O)C(C)(C)C1=O (stereo not drawn)	35	400 nM	400 nM	300 nM	14 µM	3549	Dose-dependent-effect						
CC(C)(C)c1cnc(CSc2cnc(NC(=O)C3CCNCC3)s2)o1								Active	Active	Active			
CC(C)CC(=O)c1c(O)cc2c(c1O)C(C1CCCCC1)C1=C(O2)C(C)(C)C(=O)C(C)(C)C1=O (stereo not drawn)	12.5	800 nM	500 nM	500 nM	10 µM								
CC(C)CC(=O)c1c(O)c(Br)c2c(c1O)C(CC(C)C)C1=C(O2)C(C)(C)C(=O)C(C)(C)C1=O (stereo not drawn)	11.7	600 nM	700 nM	600 nM	7 µM								
CC(C)CC(=O)c1c(O)cc2c(c1O)C(c1ccccc1)C1=C(O2)C(C)(C)C(=O)C(C)(C)C1=O (stereo not drawn)	24.4	450 nM	300 nM	400 nM	11 µM								
CC(C)CC(=O)c1c(O)cc2c(c1O)[C@@H](CC(C)C)C1=C(O2)C(C)(C)[C@@H](O)C(C)(C)C1=O	< 6.67	3750 nM			10 µM						Active		
CC(C)CC1C2=C(Oc3cc(O)c(C(=O)C4CCCC4)c(O)c31)C(C)(C)C(=O)C(C)(C)C2=O (stereo not drawn)	15.5	580 nM	300 nM	300 nM	9 µM								
CC(C)CC(=O)c1c(O)cc2c(c1O)C(C(C)C)C1=C(O2)C(C)(C)C(=O)C(C)(C)C1=O (stereo not drawn)	15.9	630 nM	700 nM	600 nM	10 µM								
CC(C)CC1C2=C(Oc3cc(O)c(C(=O)CCc4ccccc4)c(O)c31)C(C)(C)C(=O)C(C)(C)C2=O (stereo not drawn)	15.6	450 nM	400 nM	200 nM	7 µM								
CC(C)CC1C2=C(Oc3cc(O)c(C(=O)C4CCC4)c(O)c31)C(C)(C)C(=O)C(C)(C)C2=O (stereo not drawn)	26	500 nM	300 nM	250 nM	13 µM	1867	Dose-dependent-effect				Active		
CC(C)CC1C2=C(Oc3cc(O)c(C(=O)CCCCCl)c(O)c31)C(C)(C)C(=O)C(C)(C)C2=O (stereo not drawn)	16	450 nM	500 nM	600 nM	8 µM								

Structure (SMILES)	selectivity ratio [1]	IC50 [2]	IC50 [3]	IC50 [4]	CC50 at 24 h [5]	fold change (FC) [6]	Activity [7]	Activity [8]	Activity [9]	Activity [10]	Activity [11]	Activity [12]	Activity [13]
CCC1C2=C(Oc3cc(O)c(C(=O)CC(C)C)c(O)c31)C(C)(C)C(=O)C(C)(C)C2=O (stereo not drawn)	7.5	800 nM	500 nM	600 nM	6 µM								
CCCC1C2=C(Oc3cc(O)c(C(=O)CC(C)C)c(O)c31)C(C)(C)C(=O)C(C)(C)C2=O (stereo not drawn)	18	500 nM	500 nM	300 nM	9 µM								
CCC(=O)c1c(O)cc2c(c1O)C(CC(C)C)C1=C(O2)C(C)(C)C(=O)C(C)(C)C1=O (stereo not drawn)	13.9	700 nM	1300 nM	1400 nM	7 µM								
CC(C)CC1C2=C(Oc3cc(O)c(C(=O)Cc4ccc(F)cc4)c(O)c31)C(C)(C)C(=O)C(C)(C)C2=O (stereo not drawn)	17.1	350 nM	200 nM	200 nM	6 µM								
CC(=O)c1c(O)cc2c(c1O)C(CC(C)C)C1=C(O2)C(C)(C)C(=O)C(C)(C)C1=O (stereo not drawn)	13.4	900 nM			12.5 µM								
CCCC(=O)c1c(O)cc2c(c1O)C(CC(C)C)C1=C(O2)C(C)(C)C(=O)C(C)(C)C1=O (stereo not drawn)		500 nM	600 nM	800 nM	10 µM								
CC(C)CC1C2=C(Oc3cc(O)c(C(=O)Cc4ccccc4)c(O)c31)C(C)(C)C(=O)C(C)(C)C2=O (stereo not drawn)	21.2	400 nM	500 nM	300 nM	8.5 µM								
CC(C)CC(=O)c1c(OS(=O)(=O)C(F)(F)F)cc2c(c1O)C(CC(C)C)C1=C(O2)C(C)(C)C(=O)C(C)(C)C1=O (stereo not drawn)	16.7	1200 nM	600 nM	1000 nM	20 µM								
CC(C)CC(=O)c1c(O)cc2c(c1O)[C@H](CC(C)C)C1=C(C[C@H](C)CC1=O)O2	8.89	2250 nM			20 µM								
CC(C)CC(=O)c1c(O)cc2c(c1O)C(CC(C)C)C1=C(CCCC1=O)O2 (stereo not drawn)	5.33	3000 nM			16 µM								
CC(=O)Oc1cc2c(c(OC(C)=O)c1C(=O)CC(C)C)C(CC(C)C)C1=C(O2)C(C)(C)C(=O)C(C)(C)C1=O (stereo not drawn)	14	500 nM	400 nM	300 nM	7 µM								
CC(C)CC1C2=C(Oc3cc(O)c(C=O)c(O)c31)C(C)(C)C(=O)C(C)(C)C2=O (stereo not drawn)	3.56	4500 nM			16 µM								
CCCCC1C2=C(Oc3cc(O)c(C(=O)CC(C)C)c(O)c31)C(C)(C)C(=O)C(C)(C)C2=O (stereo not drawn)	10	1000 nM	400 nM	600 nM	10 µM								
CC(C)CC(=O)c1c(O)cc2c(c1O)[C@@H](CC(C)C)C1=C(C[C@H](C)CC1=O)O2	7	2000 nM			14 µM								
Nc1nc2c(ncn2COCCO)c(=O)[nH]1 [ACYCLOVIR]	> 80	1200 nM	> 100000 nM	> 100000 nM	> 100 µM							inactive	Active
CC(C)CC(=O)c1c(O)cc2c(c1O)C(C1CCC1)C1=C(O2)C(C)(C)C(=O)C(C)(C)C1=O (stereo not drawn)	10	500 nM	400 nM	500 nM	5 µM								
